In US12673924B2, “Valiolamine derivatives as glucosidase inhibitors” (Emergent Product Development Gaithersburg Inc., priority 2021, dated 2026):

target: T1, recombinant alpha-glucosidase II (murine full-length glucosidase II) (Mus musculus, UniProt Q8BHN3); assay: Alpha-glucosidase II assay; type: biochemical; settings: 4-methylumbelliferyl-alpha-D-pyranoside substrate, read-out: aGlc2 IC50
T1 construct: made in house; host or cells: HEK-293T cells co-transduced with two BacMam viruses (75% alpha, 25% beta); secreted into the culture supernatant
T1 sequence (Q8BHN3 with tags, fused parts or gaps isoform Q8BHN3-2): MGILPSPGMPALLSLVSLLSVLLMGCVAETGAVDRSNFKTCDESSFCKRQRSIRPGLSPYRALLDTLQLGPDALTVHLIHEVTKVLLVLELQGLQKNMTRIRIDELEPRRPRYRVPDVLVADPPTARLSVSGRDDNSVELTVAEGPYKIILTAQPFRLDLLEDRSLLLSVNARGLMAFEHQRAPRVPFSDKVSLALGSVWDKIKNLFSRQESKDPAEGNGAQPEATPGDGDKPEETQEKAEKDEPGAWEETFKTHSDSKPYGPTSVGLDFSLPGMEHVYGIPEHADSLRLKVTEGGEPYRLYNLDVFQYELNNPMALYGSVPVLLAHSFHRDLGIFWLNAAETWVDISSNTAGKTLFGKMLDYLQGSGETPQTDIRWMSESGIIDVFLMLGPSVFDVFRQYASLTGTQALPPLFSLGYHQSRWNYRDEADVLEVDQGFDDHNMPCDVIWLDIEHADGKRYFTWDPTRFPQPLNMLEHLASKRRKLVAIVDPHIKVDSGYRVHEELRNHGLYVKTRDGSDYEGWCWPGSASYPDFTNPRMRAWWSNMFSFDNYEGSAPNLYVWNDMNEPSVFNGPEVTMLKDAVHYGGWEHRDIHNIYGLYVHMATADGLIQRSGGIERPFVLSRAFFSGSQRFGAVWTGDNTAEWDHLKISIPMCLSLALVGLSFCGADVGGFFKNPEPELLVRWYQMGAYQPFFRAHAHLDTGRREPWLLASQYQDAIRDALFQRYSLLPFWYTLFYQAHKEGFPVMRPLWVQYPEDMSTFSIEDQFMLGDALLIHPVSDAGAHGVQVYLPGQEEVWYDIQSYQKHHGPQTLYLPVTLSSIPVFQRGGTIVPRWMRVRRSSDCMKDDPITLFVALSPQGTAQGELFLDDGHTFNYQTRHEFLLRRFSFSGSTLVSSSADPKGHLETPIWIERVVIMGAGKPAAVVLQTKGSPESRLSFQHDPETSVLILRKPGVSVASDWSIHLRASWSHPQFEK
T1 sequence (O08795 with tags, fused parts or gaps partner limits assumed): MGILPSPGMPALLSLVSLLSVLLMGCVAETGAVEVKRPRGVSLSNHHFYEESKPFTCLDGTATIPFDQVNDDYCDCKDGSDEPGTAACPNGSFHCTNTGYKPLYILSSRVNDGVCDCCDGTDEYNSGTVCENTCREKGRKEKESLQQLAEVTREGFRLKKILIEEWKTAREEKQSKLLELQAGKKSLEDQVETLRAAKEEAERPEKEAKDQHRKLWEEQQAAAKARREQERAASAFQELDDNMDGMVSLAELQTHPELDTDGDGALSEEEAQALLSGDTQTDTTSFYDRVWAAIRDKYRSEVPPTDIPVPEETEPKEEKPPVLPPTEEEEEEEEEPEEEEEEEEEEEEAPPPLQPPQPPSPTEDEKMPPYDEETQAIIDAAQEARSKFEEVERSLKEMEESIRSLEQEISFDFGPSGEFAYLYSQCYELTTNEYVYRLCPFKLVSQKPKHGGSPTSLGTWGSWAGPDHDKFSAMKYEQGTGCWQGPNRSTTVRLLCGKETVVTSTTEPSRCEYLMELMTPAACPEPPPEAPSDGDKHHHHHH
From the text: Preparation of Murine Full-length Glucosidase II: Glucosidase is a heterodimeric protein consisting of alpha and beta subunits. […] A single construct was designed for each of the subunits for gene synthesis and cloning into Gateway entry vectors. The alpha subunit was appended with a Strep-affinity tag and the beta subunit was appended with a 6-His affinity tag. The entry vectors were cloned into Kemp Protein's BacMam Destination vector and the vectors were transformed into chemically competent DH10Bac E. coli cells to produce recombinant glucosidase II bacmids. Bacmid isolates for each of the subunits were obtained following two rounds of blue-white screening and they were transfected into Sf9 cells cultivated in serum-free medium (Thermo Fisher Scientific). MOI of 10 with a ratio of 75% alpha subunit and 25% beta subunit was selected for expression of glucosidase II. […] Productions and purifications of glucosidase II were carried out at scales ranging from 1-liter to 10-liters. […] In another example, production at the 10-liter scale was performed in stirred-tank bioreactors at 27° C. and 80 rpm with dissolved oxygen level maintained at 50% of oxygen in air and pH maintained between 7.0 and 7.2. For both subunits, the cells were transduced using a total MOI of 10 (75% alpha and 25% beta) and the culture supernatant was harvested at 96 hours post-transduction using centrifugation and filtration through a 0.2 micron filter.
The supernatant from a 10-liter culture was placed in a stir-jar and 25 mL of Nickel-SEPHAROSE Excel resin (GE) was added. The supernatant was stirred overnight at 25 rpm and 4° C. and the resin was collected into a column (26 mm×60 mm) and washed with 8 CV of 2×DPBS at pH 7.4. The glucosidase II protein was eluted using a linear gradient of 0-60% of 2×DPBS and 500 mM imidazole at pH 7.4. Fractions (10 mL) were collected and analyzed by SDS PAGE and Western Blot (reducing anti-His and anti-Strep). Fractions containing purified glucosidase II were pooled and concentrated for application to a SUPERDEX 200 (26 mm×600 mm) column (GE). The column buffer was PBS pH 7.2 and the concentrated eluate pool was loaded at a rate of 1 mL per minute. Fractions (3 mL) were collected and analyzed using SDS PAGE and Western Blot (reducing anti-His and anti-Strep). Fractions containing purified glucosidase II in PBS pH 7.2 were pooled and concentrated to 1 mg/mL. The final product was filter sterilized and stored at 4° C.
Alpha-glucosidase II Assay: The assay was performed by incubating recombinant enzyme alpha-glucosidase II for 60 minutes at 37° C. with multiple dilutions of test compounds. 4-methylumbelliferyl-alpha-D-pyranoside was then introduced as the substrate to the mixture. Fluorogenic 1,4-methyllumbelliferone was generated, and the reaction was stopped with the stop solution (0.5 M glycine, 0.3 M NaOH pH 10) after an incubation of 30 minutes at 37° C. […] Percent inhibition was then plotted as a function of concentration for each test compound.

IC50 [nM] | SMILES
1.1 | O=[N+]([O-])c1cc(-c2ncccn2)ccc1NCCCCCCN[C@H]1C[C@](O)(CO)[C@@H](O)[C@H](O)[C@H]1O [Compound 7, (1S,2S,3R,4S,5S)-1-(hydroxymethyl)-5-((6-((2-nitro-4-(pyrimidin-2-yl)phenyl)amino)hexyl)amino)cyclohexane-1,2,3,4-tetraol]
1010 | [N-]=[N+]=Nc1ccc(NCCCCN[C@H]2C[C@](O)(CO)[C@@H](O)[C@H](O)[C@H]2O)c([N+](=O)[O-])c1 [Compound 8, (1S,2S,3R,4S,5S)-5-((4-((4-azido-2-nitrophenyl)amino)butyl)amino)-1-(hydroxymethyl)cyclohexane-1,2,3,4-tetraol]
27 | [N-]=[N+]=Nc1ccc(NCCCCCN[C@H]2C[C@](O)(CO)[C@@H](O)[C@H](O)[C@H]2O)c([N+](=O)[O-])c1 [Compound 9, (1S,2S,3R,4S,5S)-5-((5-((4-azido-2-nitrophenyl)amino)pentyl)amino)-1-(hydroxymethyl)cyclohexane-1,2,3,4-tetraol]
37000 | [N-]=[N+]=Nc1ccc(NCCOCCN[C@H]2C[C@](O)(CO)[C@@H](O)[C@H](O)[C@H]2O)c([N+](=O)[O-])c1 [Compound 10, (1S,2S,3R,4S,5S)-5-((2-(2-((4-azido-2-nitrophenyl)amino)ethoxy)ethyl)amino)-1-(hydroxymethyl)cyclohexane-1,2,3,4-tetraol]
> 100000 | O=C(O)CCCCN[C@H]1C[C@](O)(CO)[C@@H](O)[C@H](O)[C@H]1O [Compound 11, 5-(((1S,2S,3R,4S,5S)-2,3,4,5-tetrahydroxy-5-(hydroxymethyl)cyclohexyl)amino)pentanoic acid]
> 100000 | N[C@H]1C[C@](O)(CO)[C@@H](O)[C@H](O)[C@H]1O [Valiolamine]

Continued, compound first:

SMILES | IC50 [nM]
[N-]=[N+]=Nc1ccc(NCCCCCCN[C@H]2C[C@](O)(CO)[C@@H](O)[C@H](O)[C@H]2O)c([N+](=O)[O-])c1 [Compound 2, (1S,2S,3R,4S,5S)-5-((6-((4-azido-2-nitrophenyl)amino)hexyl)amino)-1-(hydroxymethyl)cyclohexane-1,2,3,4-tetraol] | 33.7
COCCCCCCCCCN[C@H]1C[C@](O)(CO)[C@@H](O)[C@H](O)[C@H]1O [Compound 3, (1S,2S,3R,4S,5S)-1-(hydroxymethyl)-5-((9-methoxynonyl)amino)cyclohexane-1,2,3,4-tetraol] | 490
O=[N+]([O-])c1cc(-n2cnnn2)ccc1NCCCCCCN[C@H]1C[C@](O)(CO)[C@@H](O)[C@H](O)[C@H]1O [Compound 4, (1S,2S,3R,4S,5S)-1-(hydroxymethyl)-5-((6-((2-nitro-4-(1H-tetrazol-1-yl)phenyl)amino)hexyl)amino)cyclohexane-1,2,3,4-tetraol] | 1420
O=[N+]([O-])c1cc(-n2nccn2)ccc1NCCCCCCN[C@H]1C[C@](O)(CO)[C@@H](O)[C@H](O)[C@H]1O [Compound 5, (1S,2S,3R,4S,5S)-1-(hydroxymethyl)-5-((6-((2-nitro-4-(2H-1,2,3-triazol-2-yl)phenyl)amino)hexyl)amino)cyclohexane-1,2,3,4-tetraol] | < 1
O=[N+]([O-])c1cc(-n2ccnn2)ccc1NCCCCCCN[C@H]1C[C@](O)(CO)[C@@H](O)[C@H](O)[C@H]1O [Compound 6, (1S,2S,3R,4S,5S)-1-(hydroxymethyl)-5-((6-((2-nitro-4-(1H-1,2,3-triazol-1-yl)phenyl)amino)hexyl)amino)cyclohexane-1,2,3,4-tetraol] | 15.5
